Source: US20060069132A1, “Azolecarboxamide herbicides” (priority 2004, published 2006)

Columns and labels:
[1] = tested on: corn; experiment: Test C pre-/postemergence herbicide test; assay type: in vivo, Zea mays
Outline: (§1)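 Pre/post spray; non-phytotoxic solvent + surfactant. Post-timing 1–4 leaves, 2–18 cm. Read-out: visual % control vs untreated, day 12–14, greenhouse.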

[2] = tested on: lambsquarters; experiment: Test C pre-/postemergence herbicide test; assay type: in vivo, Chenopodium album
Outline: as §1

[3] = tested on: smallflower umbrella sedge; experiment: Test C flooded paddy test; assay type: in vivo, Cyperus difformis; conditions: for Plant response rating, Sedge, Umbrella: 500 g ai/ha, visual rating after 12 to 14 days
[4] = tested on: pigweed; experiment: Test C pre-/postemergence herbicide test; assay type: in vivo, Amaranthus retroflexus
Outline: as §1

[5] = tested on: common (oilseed) sunflower; experiment: Test C pre-/postemergence herbicide test; assay type: in vivo, Helianthus annuus; conditions: preemergence
Outline: as §1

[6] = tested on: barnyardgrass; experiment: Test C flooded paddy test; assay type: in vivo, Echinochloa crus-galli; conditions: for Plant response rating, Barnyardgrass: 500 g ai/ha, visual rating after 12 to 14 days
Outline: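 Plants were grown to the 1- to 4-leaf stage (2–18 cm) and then treated postemergence, or grown to the 2-leaf stage for the flooded paddy test. They were held in a greenhouse for 12 to 14 days and then scored by eye against controls, where 0 is no effect and 100 is complete control.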

[7] = tested on: velvetleaf; experiment: Test C pre-/postemergence herbicide test; assay type: in vivo, Abutilon theophrasti
Outline: as §1

[8] = tested on: common ragweed; experiment: Test C pre-/postemergence herbicide test; assay type: in vivo, Ambrosia elatior; set-up: key to Plant response rating, Ragweed: 0 = no effect, 100 = complete control
Outline: as §1

[9] = tested on: eastern black nightshade; experiment: Test C pre-/postemergence herbicide test; assay type: in vivo, Solanum ptycanthum; conditions: preemergence
Outline: as §1

[10] = tested on: ducksalad; experiment: Test C flooded paddy test; assay type: in vivo, Heteranthera limosa; conditions: for Plant response rating, Ducksalad: 500 g ai/ha, visual rating after 12 to 14 days
[11] = tested on: large crabgrass; experiment: Test C pre-/postemergence herbicide test; assay type: in vivo, Digitaria sanguinalis
Outline: as §1

[12] = tested on: cocklebur; experiment: Test C pre-/postemergence herbicide test; assay type: in vivo, Xanthium strumarium; conditions: for Cocklebur plant response rating: 500 g ai/ha
Outline: as §1

[13] = 62 g ai/ha, preemergence, scale 0 to 100
[14] = 125 g ai/ha, scale 0 (no effect) to 100 (complete control), visual, 12 to 14 days, preemergence
[15] = 250 g ai/ha, scale 0-100, preemergence
[16] = 500 g ai/ha, scale 0 to 100 (0 no effect, 100 complete control), visual, 12 to 14 days, preemergence
[17] = Postemergence, 500 g ai/ha, scale 0 to 100
[18] = Postemergence, 250 g ai/ha, scale 0 to 100, 0 no effect, 100 complete control
[19] = postemergence, 125 g ai/ha, scale 0 to 100
[20] = postemergence, 62 g ai/ha, scale 0 to 100
[21] = 125 g ai/ha, scale 0 to 100 (0 no effect, 100 complete control)
[22] = 250 g ai/ha, scale of 0 to 100, 0 is no effect, 100 is complete control
[23] = scale 0 to 100 (0 no effect, 100 complete control)
[24] = 500 g ai/ha, scale 0 to 100 (0 no effect, 100 complete control), visual, 12 to 14 days
[25] = 62 g ai/ha, scale 0 to 100 (0 no effect, 100 complete control)
[26] = 125 g ai/ha, scale 0 (no effect) to 100 (complete control), visual, 12 to 14 days

In the case of `CCn1nc(C(C)(C)C)cc1C(=O)Nc1cccc(OC(F)F)c1` [Compound 332], the “Plant response rating, Corn” value [1, 13] is reported as 0, the “Plant response rating, Corn” value [1, 14] is reported as 0 and the “Plant response rating, Corn” value [1, 15] is reported as 0. For the same compound, the “Plant response rating, Corn” value [1, 16] was 5, the “Corn plant response rating” value [1, 17] was 5 and the “Plant response rating, Corn” value [1, 18] was 5. For the same compound, the “Plant response rating, Corn” value [1, 19] was 0, the “Plant response rating, Corn” value [1, 20] was 0 and the “Plant response rating, Lambsquarters” value [2, 13] was 100. The “Plant response rating, Lambsquarters” value [2, 14] was 100, the “Plant response rating, Lambsquarters” value [2, 15] was 100 and the “Plant response rating, Lambsquarters” value [2, 16] was 100. For the same compound, the “Lambsquarters plant response rating” value [2, 17] was 100, the “Plant response rating, Lambsquarters” value [2, 18] was 100 and the “Plant response rating, Lambsquarters” value [2, 19] was 65. For the same compound, the “Plant response rating, Lambsquarters” value [2, 20] was 50, the “Sedge, Umbrella plant response rating” value ([3]; 62 g ai/ha, scale 0 to 100) was 65 and the “Sedge, Umbrella plant response rating” value [3, 21] was 80. The “Sedge, Umbrella plant response rating” value [3, 22] was 85, the “Plant response rating, Sedge, Umbrella” value [3, 23] was 85 and the “Plant response rating, Pigweed” value [4, 13] was 100. The “Plant response rating, Pigweed” value [4, 14] was 100, the “Plant response rating, Pigweed” value [4, 15] was 100 and the “Plant response rating, Pigweed” value [4, 16] was 100. For the same compound, the “Pigweed plant response rating” value [4, 17] was 95, the “Plant response rating, Pigweed” value [4, 18] was 95 and the “Plant response rating, Pigweed” value [4, 19] was 90. The “Plant response rating, Pigweed” value [4, 20] was 85, the “Plant response rating, Sunflower” value ([5]; 62 g ai/ha, scale 0 to 100) was 0 and the “Plant response rating, Sunflower” value ([5]; 250 g ai/ha, scale 0-100) was 0. The “Plant response rating, Sunflower” value [5, 24] was 0, the “Barnyardgrass plant response rating” value [6, 25] was 5 and the “Barnyardgrass plant response rating” value [6, 21] was 25. The “Barnyardgrass plant response rating” value [6, 22] was 50, the “Plant response rating, Barnyardgrass” value [6, 23] was 60 and the “Plant response rating, Velvetleaf” value [7, 13] was 40. The “Plant response rating, Velvetleaf” value [7, 15] was 45, the “Plant response rating, Velvetleaf” value [7, 16] was 70 and the “Velvetleaf plant response rating” value [7, 17] was 90. For the same compound, the “Plant response rating, Velvetleaf” value [7, 18] was 85, the “Plant response rating, Velvetleaf” value [7, 19] was 60 and the “Plant response rating, Velvetleaf” value [7, 20] was 40. For the same compound, the “Plant response rating, Ragweed” value [8, 13] was 0, the “Plant response rating, Ragweed” value [8, 15] was 5 and the “Plant response rating, Ragweed” value [8, 16] was 70. The “Ragweed plant response rating” value [8, 17] was 60, the “Plant response rating, Ragweed” value [8, 18] was 40 and the “Plant response rating, Ragweed” value [8, 19] was 30. The “Plant response rating, Ragweed” value [8, 20] was 5, the “Plant response rating, Nightshade” value ([9]; 62 g ai/ha, scale 0 to 100) was 20 and the “Plant response rating, Nightshade” value [9, 26] was 90. The “Plant response rating, Nightshade” value ([9]; 250 g ai/ha, scale 0-100) was 95, the “Plant response rating, Nightshade” value [9, 24] was 100 and the “Ducksalad plant response rating” value ([10]; 62 g ai/ha, scale 0 to 100) was 20. The “Ducksalad plant response rating” value [10, 21] was 90, the “Ducksalad plant response rating” value [10, 22] was 95 and the “Plant response rating, Ducksalad” value [10, 23] was 95. For the same compound, the “Plant response rating, Crabgrass, Large” value [11, 13] was 75, the “Plant response rating, Crabgrass, Large” value [11, 14] was 100 and the “Plant response rating, Crabgrass, Large” value [11, 15] was 100. For the same compound, the “Plant response rating, Crabgrass, Large” value [11, 16] was 100, the “Crabgrass, Large plant response rating” value [11, 17] was 70 and the “Plant response rating, Crabgrass, Large” value [11, 18] was 50. For the same compound, the “Plant response rating, Crabgrass, Large” value [11, 20] was 30, the “Plant response rating, Cocklebur” value [12, 13] was 0 and the “Plant response rating, Cocklebur” value [12, 14] was 0. The “Plant response rating, Cocklebur” value [12, 15] was 0, the “Cocklebur plant response rating” value ([12]; Postemergence, scale 0 to 100) was 15 and the “Plant response rating, Cocklebur” value [12, 18] was 10. The “Cocklebur plant response rating” value ([12]; Preemergence, scale 0 to 100, 0 no effect, 100 complete control) was 0, the “Plant response rating, Cocklebur” value [12, 19] was 10 and the “Plant response rating, Cocklebur” value [12, 20] was 5.

For `CCn1nc(C(C)(C)C)cc1C(=O)Nc1cc(C(=S)N(C)C)ccn1` [Compound 334], the “Plant response rating, Corn” value [1, 13] was 0, the “Plant response rating, Corn” value [1, 14] was 20 and the “Plant response rating, Corn” value [1, 15] was 50. For the same compound, the “Plant response rating, Lambsquarters” value [2, 13] was 100, the “Plant response rating, Lambsquarters” value [2, 14] was 100 and the “Plant response rating, Lambsquarters” value [2, 15] was 100. For the same compound, the “Sedge, Umbrella plant response rating” value ([3]; 62 g ai/ha, scale 0 to 100) was 80, the “Sedge, Umbrella plant response rating” value [3, 21] was 90 and the “Sedge, Umbrella plant response rating” value [3, 22] was 90. The “Plant response rating, Sedge, Umbrella” value [3, 23] was 95, the “Plant response rating, Pigweed” value [4, 13] was 100 and the “Plant response rating, Pigweed” value [4, 14] was 100. For the same compound, the “Plant response rating, Pigweed” value [4, 15] was 100, the “Plant response rating, Sunflower” value ([5]; 62 g ai/ha, scale 0 to 100) was 5 and the “Plant response rating, Sunflower” value ([5]; 250 g ai/ha, scale 0-100) was 55. The “Barnyardgrass plant response rating” value [6, 25] was 70, the “Barnyardgrass plant response rating” value [6, 21] was 90 and the “Barnyardgrass plant response rating” value [6, 22] was 95. The “Plant response rating, Barnyardgrass” value [6, 23] was 95, the “Plant response rating, Velvetleaf” value [7, 13] was 5 and the “Plant response rating, Velvetleaf” value [7, 15] was 85. The “Plant response rating, Ragweed” value [8, 13] was 75, the “Plant response rating, Ragweed” value [8, 15] was 100 and the “Plant response rating, Nightshade” value ([9]; 62 g ai/ha, scale 0 to 100) was 100. The “Plant response rating, Nightshade” value [9, 26] was 100, the “Plant response rating, Nightshade” value ([9]; 250 g ai/ha, scale 0-100) was 100 and the “Ducksalad plant response rating” value ([10]; 62 g ai/ha, scale 0 to 100) was 75. The “Ducksalad plant response rating” value [10, 21] was 85, the “Ducksalad plant response rating” value [10, 22] was 85 and the “Plant response rating, Ducksalad” value [10, 23] was 90. The “Plant response rating, Crabgrass, Large” value [11, 13] was 85, the “Plant response rating, Crabgrass, Large” value [11, 14] was 100 and the “Plant response rating, Crabgrass, Large” value [11, 15] was 100. For the same compound, the “Plant response rating, Cocklebur” value [12, 13] was 30, the “Plant response rating, Cocklebur” value [12, 14] was 60 and the “Plant response rating, Cocklebur” value [12, 15] was 70.
